Columns and labels:
[1] = biological target: T1, SHIP2 (Homo sapiens, UniProt O15357); assay: Malachite Green phosphate release assay, SHIP2; type: biochemical; conditions: at 1 mM
T1 sequence (O15357 1-1258): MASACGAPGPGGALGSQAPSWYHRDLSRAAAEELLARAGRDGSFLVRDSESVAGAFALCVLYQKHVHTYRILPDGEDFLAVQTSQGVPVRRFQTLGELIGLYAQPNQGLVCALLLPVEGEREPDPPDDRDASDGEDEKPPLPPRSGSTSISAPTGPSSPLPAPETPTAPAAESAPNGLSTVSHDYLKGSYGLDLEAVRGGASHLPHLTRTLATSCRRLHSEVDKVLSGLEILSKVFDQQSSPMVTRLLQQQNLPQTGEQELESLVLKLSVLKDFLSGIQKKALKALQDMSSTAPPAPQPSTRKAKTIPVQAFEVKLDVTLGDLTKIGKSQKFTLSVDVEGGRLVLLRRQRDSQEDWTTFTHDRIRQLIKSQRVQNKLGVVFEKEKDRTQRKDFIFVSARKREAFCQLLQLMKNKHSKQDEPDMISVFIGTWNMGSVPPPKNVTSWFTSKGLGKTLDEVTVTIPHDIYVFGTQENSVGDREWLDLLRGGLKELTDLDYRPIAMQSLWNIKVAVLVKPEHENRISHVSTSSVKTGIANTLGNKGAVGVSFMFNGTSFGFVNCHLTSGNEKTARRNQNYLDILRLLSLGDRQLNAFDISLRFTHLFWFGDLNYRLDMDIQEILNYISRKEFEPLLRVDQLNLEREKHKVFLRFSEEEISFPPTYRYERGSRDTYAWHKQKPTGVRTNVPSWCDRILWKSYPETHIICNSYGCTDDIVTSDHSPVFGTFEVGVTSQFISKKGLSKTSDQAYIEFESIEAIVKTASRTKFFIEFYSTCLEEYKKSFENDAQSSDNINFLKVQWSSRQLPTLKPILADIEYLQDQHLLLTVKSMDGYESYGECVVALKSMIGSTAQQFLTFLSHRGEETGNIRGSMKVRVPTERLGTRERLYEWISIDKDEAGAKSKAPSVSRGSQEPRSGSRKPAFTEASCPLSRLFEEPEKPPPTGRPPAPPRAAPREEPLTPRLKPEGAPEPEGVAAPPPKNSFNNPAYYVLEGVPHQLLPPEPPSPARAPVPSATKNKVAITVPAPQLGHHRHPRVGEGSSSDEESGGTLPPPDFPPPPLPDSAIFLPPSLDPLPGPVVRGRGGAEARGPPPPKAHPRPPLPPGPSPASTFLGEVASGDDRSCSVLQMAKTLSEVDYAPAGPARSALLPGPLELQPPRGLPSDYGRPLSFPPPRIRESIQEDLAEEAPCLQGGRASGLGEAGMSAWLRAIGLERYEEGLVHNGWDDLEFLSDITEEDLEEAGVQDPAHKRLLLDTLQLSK

[2] = mouse, in vivo
[3] = test system: NK1.1+CD3- NK cells; assay: NK cell compartment in spleens of treated mice; type: in vivo, mouse; conditions: mice treated daily for 6 days, spleen on day 7
Protocol: Mice were treated daily for 6 days with either NSC13480, vehicle alone (Vehicle) or were non-manipulated (Normal). On the 7th day the spleens of the mice were analyzed for NK cell content (NK1.1+CD3− cells) and for expression of the MHC-I inhibitory receptor Ly49G2.
SHIP-deficiency expands the peripheral NK compartment and disrupts the repertoire of receptors elaborated by NK cells that recognize MHC-I ligands. The NK cell compartment was examined in NSC13480-treated mice to determine if inhibition of SHIP enzymatic activity in vivo could also lead to similar disruptions in the NK cell compartment. […] Ly49G2 is an MHC-I inhibitory receptor shown to be under-represented in SHIP^−/− mice.
Antibody staining and flow cytometry (Examples 1-6): Anti-CD16/32 was co-incubated with the samples to block Fc receptor binding. Antibodies used for staining included: NK1.1 (PK136); CD3e (145-2C11); Ly49G2 (4D11); Gr-1 (RB6-8C5); Mac-1(M1/70); CD11c (HL3); CD4 (GK1.5); CD25 (PC61) and were obtained from BD Pharmingen (San Jose, Calif.). FoxP3 (FJK-16s) was purchased from eBioScience (San Diego, Calif.). All samples were acquired on a FACSCalibur and analyzed using FlowJo8.7.1. For viable staining, dead cells were excluded from the analysis following cytometer acquisition of data by exclusion of the 7AAD dye. […]

Compound | inhibition of SHIP2 activity [1] | pulmonary myeloid infiltration and lung consolidation [2] | frequency of Ly49G2+ NK cells [3] | splenic NK cell numbers [3]
CC(C)CCC[C@@H](C)[C@H]1CC[C@H]2[C@@H]3CC[C@H]4C[C@H](N)CC[C@]4(C)[C@H]3CC[C@]12C [NSC23922, (3R,5S,8R,9S,10S,13R,14S,17R)-10,13-dimethyl-17-[(2R)-6-methylheptan-2-yl]-2,3,4,5,6,7,8,9,11,12,14,15,16,17-tetradecahydro-1H-cyclopenta[a]phenanthren-3-amine] | fails to inhibit | absence of the pulmonary myeloid infiltration and lung consolidation |  | 
OC(c1cc(-c2ccccc2)nc2c1ccc1ccccc12)C1CCCCN1 (stereo not shown) [NSC13480, (2-phenylbenzo[h]quinolin-4-yl)-piperidin-2-ylmethanol] |  |  | much reduced frequency | significant increase

Source: patent publication US9006221B2, “Method of modulating ship activity” (H. Lee Moffitt Cancer Center and Reserach Institute, Inc., priority 2008, dated 2015)
